In the first assay the target is T1, C5a anaphylatoxin chemotactic receptor 1 (Homo sapiens, UniProt P21730).
T1 sequence (P21730 whole entry): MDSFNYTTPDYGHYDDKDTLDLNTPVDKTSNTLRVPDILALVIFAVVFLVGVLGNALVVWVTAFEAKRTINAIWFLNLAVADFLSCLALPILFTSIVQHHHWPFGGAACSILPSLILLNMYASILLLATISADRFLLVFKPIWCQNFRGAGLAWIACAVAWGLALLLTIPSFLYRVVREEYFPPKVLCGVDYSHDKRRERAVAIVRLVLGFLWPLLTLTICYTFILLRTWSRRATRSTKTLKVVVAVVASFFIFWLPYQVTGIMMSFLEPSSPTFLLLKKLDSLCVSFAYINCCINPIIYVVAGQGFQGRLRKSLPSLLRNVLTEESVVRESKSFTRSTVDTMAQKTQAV
Briefly: Compound was evaluated for the antagonistic activity against C5a anaphylatoxin chemotactic receptor in human neutrophil C5a stimulated respiratory burst assay. The assay is classed as functional.
Conditions: not given
In general, IC50 refers to the concentration that gives 50% inhibition. A high value points to a need for much substance. Consider `CNC(N)=Nc1ccc(OCCc2ccccc2)c(-c2ccccc2)c1`, for which 800 nM corresponded to half-maximal inhibition (IC50).

The target in the next assay is T1, C5a anaphylatoxin chemotactic receptor 1. Kind of assay: Binding affinity against C5a anaphylatoxin chemotactic receptor assayed on human monocyte cell line U937. The format is cell-based, U-937.
Conditions: not given
Regarding `CNC(N)=Nc1ccc(OCc2ccccc2)c(OC2CCCC2)c1`, the IC50 amounted to 25 µM.
The compound `CNC(N)=Nc1ccc(OCc2ccccc2)c(-c2ccc(Cl)cc2)c1` registered an IC50 of 50 µM.
The same measure, in the same setting: the figure for `CNC(N)=Nc1ccc(OCc2ccccc2)c(-c2ccccc2)c1` is 2 µM; for `CCCCOc1ccc(NC(=N)NC)cc1OCc1ccccc1` it is 30 µM; for `C/N=C(/N)Nc1ccc(OCc2ccccc2)c(-c2cccc3ccccc23)c1` it is 4.5 µM.
The same measure, in the same setting: in the case of `C/N=C(\N)Nc1ccc(OCc2ccccc2)c(OCc2ccccc2)c1` it was 30 µM; in that of `CNC(=N)Nc1ccc(OCc2ccccc2)c(-c2cccc(OC)c2)c1`, 9 µM.
`CNC(N)=Nc1ccc(OCCCc2ccccc2)c(OCc2ccccc2)c1` registered an IC50 of 6 µM.
The same measure, in the same setting: the figure for `CNC(N)=Nc1ccc(OCCCc2ccccc2)c(-c2ccccc2)c1` is 1 µM; for `CNC(N)=Nc1ccc(OCCC2CCCCC2)c(OCc2ccccc2)c1` it is 9 µM; for `CNC(N)=Nc1ccc(OCC2CCCCC2)c(-c2ccccc2)c1` it is 3 µM.
`C/N=C(/N)Nc1ccc(OCc2ccccc2)c(Oc2ccccc2)c1` yielded an IC50 of 4 µM.
In the case of `CNC(N)=Nc1ccc(OCc2ccccc2)c(-c2ccc(OC)cc2)c1`, the IC50 is 54 µM.
On the same count and under the same terms, the figure for `C/N=C(/N)Nc1ccc(OCCC2CCCCC2)c(-c2ccccc2)c1` is 1 µM; for `C/N=C(/N)Nc1ccc(OCc2ccccc2)c(-c2cccc(F)c2)c1` it is 8 µM.
`N=C(N)Nc1ccc(OCc2ccccc2)c(OCc2ccccc2)c1` registered an IC50 of over 100 µM.
In the case of `C/N=C(/N)Nc1ccc(OCc2ccccc2)c(-c2cccs2)c1`, the IC50 worked out at 9 µM.
In the case of `CNC(N)=Nc1ccc(OCCc2ccccc2)c(OCc2ccccc2)c1`, the 50% inhibitory concentration (IC50) was found to be 7.5 µM.
Turning to `CNC(N)=Nc1ccc(OCCCCc2ccccc2)c(OCc2ccccc2)c1`, the IC50 is 4 µM.
On the same count and under the same terms, in the case of `C/N=C(/N)Nc1ccc(OCC2CCCCC2)c(OCc2ccccc2)c1` it was 8 µM.

The target of a further assay is T2, C5a anaphylatoxin chemotactic receptor 1 (Homo sapiens) (UniProt P21730).
T2 sequence (whole entry): T1 sequence (P21730 whole entry)
Briefly: Tested in vitro for the inhibition against C5a anaphylatoxin chemotactic receptor assayed on human monocyte cell line U937 at 30 uM. The format is cell-based. Particulars: U-937.
As a reminder, the inhibition is the percentage by which the read-out fell short of the control. Low values mean a weak effect, high ones a strong effect. Regarding `CC/N=C(\N)Nc1ccc(OCc2ccccc2)c(OCc2ccccc2)c1`, the inhibition was determined as 40%.
In turn, `CNC(=N)Nc1ccc(OC)c(OCc2ccccc2)c1` returned an inhibition of 20%.
With `C/N=C(/N)Nc1ccc(OCc2ccccc2)c(-c2ccc(F)cc2)c1`, the inhibition was determined as 20%.
The same measure, in the same setting: in the case of `C/N=C(/N)Nc1ccc(Oc2ccccc2)c(OCc2ccccc2)c1` it was 32%.

Another assay concerns the target T2, C5a anaphylatoxin chemotactic receptor 1 (Homo sapiens). Kind of assay: Tested in vitro for the inhibition against C5a anaphylatoxin chemotactic receptor assayed on human monocyte cell line U937; Inactive at 30 uM. The format is cell-based. Particulars: U-937.
In turn, `NCc1ccc(OCc2ccccc2)c(OCc2ccccc2)c1` gave an inhibition of under 20%.
On the same count and under the same terms, the figure for `C/N=C(/N)Nc1ccc(OCc2ccccc2)c(OCCc2ccccc2)c1` is under 20%.
The same measure, in the same setting: in the case of `CNC(=N)Cc1ccc(OCc2ccccc2)c(OCc2ccccc2)c1` it was under 20%; in that of `C/N=C(/N)c1ccc(OCc2ccccc2)c(OCc2ccccc2)c1`, under 20%; in that of `CC(=N)Nc1ccc(OCc2ccccc2)c(OCc2ccccc2)c1`, under 20%.
Still for that read-out and setting: in the case of `Nc1ccc(OCc2ccccc2)c(OCc2ccccc2)c1` it was under 20%; in that of `CNC(=N)Nc1ccc(OCc2ccccc2)c(-c2ccccc2OC)c1`, under 20%; in that of `N=C(N)NCc1ccc(OCc2ccccc2)c(OCc2ccccc2)c1`, under 20%.

(Values after ChEMBL document CHEMBL1129896, “New non peptidic C5a receptor antagonists” (Bioorg Med Chem Lett, 1997).)
